Each structure is given as a SMILES string.

T1 sequence (O75385 1-649): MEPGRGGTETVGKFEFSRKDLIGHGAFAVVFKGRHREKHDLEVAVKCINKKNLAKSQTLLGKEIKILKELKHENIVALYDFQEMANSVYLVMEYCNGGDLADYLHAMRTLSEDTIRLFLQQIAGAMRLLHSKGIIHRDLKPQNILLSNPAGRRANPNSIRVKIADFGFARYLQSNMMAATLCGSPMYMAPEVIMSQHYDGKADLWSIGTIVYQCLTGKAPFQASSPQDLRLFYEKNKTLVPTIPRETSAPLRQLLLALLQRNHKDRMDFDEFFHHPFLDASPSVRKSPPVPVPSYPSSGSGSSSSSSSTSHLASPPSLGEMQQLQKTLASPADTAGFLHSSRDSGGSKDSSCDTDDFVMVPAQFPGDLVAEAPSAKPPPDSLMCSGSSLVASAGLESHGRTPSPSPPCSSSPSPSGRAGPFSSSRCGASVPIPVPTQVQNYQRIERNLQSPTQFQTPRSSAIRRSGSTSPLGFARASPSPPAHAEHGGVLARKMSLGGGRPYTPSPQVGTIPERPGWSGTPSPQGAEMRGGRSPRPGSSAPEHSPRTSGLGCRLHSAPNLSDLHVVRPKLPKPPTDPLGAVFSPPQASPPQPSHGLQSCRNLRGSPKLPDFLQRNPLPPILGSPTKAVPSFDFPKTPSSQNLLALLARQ

One test addresses T1, Recombinant human ULK1 (1-649) (Homo sapiens (Human), UniProt O75385). In words: ULK1 ADP Glo kinase activity assay (MBP substrate). The following applies: 25° C., 40 minutes, read-out: ULK1 biochemical IC50. As for the experimental part:
Recombinant human ULK1 (1-649) protein expressed in Sf9 insect cells was obtained from SignalChem (Vancouver, BC), catalog #U01-11G. Active kinase was purified via N-terminal GST tag to >85% purity.
ADP GLO Kinase Assay Reagents were obtained from Promega Corp (Madison, WI), catalog #V9104.
MBP (myelin basic protein) substrate, bovine, purified, was obtained from Sigma (St. Louis, MO), catalog #M1891.
ULK1 inhibitor potency was determined using the luminescent ADP Glo Kinase Assay (Promega), a universal ADP detection system that measures kinase activity by quantifying the amount of ADP produced during a kinase reaction. ULK1 kinase reactions are performed in a standard 96-well microplate (20 uL reaction volume) at 25° C. for 40 minutes in the presence or absence of the test compound (12-point dilution series starting at 10 uM). Addition of MBP substrate and ATP initiates the kinase reaction.
The standard ADP Glo assay is performed in two steps. In step one, following the kinase reaction, an equal volume of ADP-Glo™ Reagent (20 uL) is added to terminate the kinase reaction and deplete the remaining ATP. In the second step, the Kinase Detection Reagent (10 uL) is added to simultaneously convert ADP to ATP and allow the newly synthesized ATP to be measured using a luciferase/luciferin reaction. Step two of the ADP Glo assay is performed in a white 384-well plate (20 uL final volume). Thirty minutes after the addition of the Detection reagent, light generated from the luciferase reaction is measured (1 second exposure) using a microplate compatible luminometer (CLARIOstar, BMG Labtech).
Inhibition of ULK1 kinase activity is determined for each test compound by comparison to DMSO only control wells. Inhibitor IC50 was calculated by plotting the change in luminescence after 30 minutes (response) versus inhibitor concentration (in log molar) then applying the four-parameter variable slope curve fit (GraphPad Prism). Inhibition of ULK1 in biochemical assay is found in Table 3.
As for `NC(=O)c1csc(-c2nc(Nc3cc4c(cc3Cl)CNCC4)ncc2C(F)(F)F)c1` [Example 1, 5-(2-((7-chloro-1,2,3,4-tetrahydroisoquinolin-6-yl)amino)-5-(trifluoromethyl)pyrimidin-4-yl)thiophene-3-carboxamide], the IC50 was at most 10 nM.

As to `CN(C)C(=O)c1csc(-c2nc(Nc3cc4c(cc3Cl)CNCC4)ncc2C(F)(F)F)c1` [Example 2, 5-(2-((7-chloro-1,2,3,4-tetrahydroisoquinolin-6-yl)amino)-5-(trifluoromethyl)pyrimidin-4-yl)-N,N-dimethylthiophene-3-carboxamide], the IC50 fell in the range of 10 to 50 nM. Turning to `CN(C)C(=O)c1ccc(-c2nc(Nc3cc4c(cc3Cl)CNCC4)ncc2C(F)(F)F)s1` [Example 3, 5-(2-((7-chloro-1,2,3,4-tetrahydroisoquinolin-6-yl)amino)-5-(trifluoromethyl)pyrimidin-4-yl)-N,N-dimethylthiophene-2-carboxamide], the IC50 is at most 10 nM. Consider `O=C1NCCc2sc(-c3nc(Nc4cc5c(cc4Cl)CNCC5)ncc3C(F)(F)F)cc21` [Example 4, 2-(2-((7-chloro-1,2,3,4-tetrahydroisoquinolin-6-yl)amino)-5-(trifluoromethyl)pyrimidin-4-yl)-6,7-dihydrothieno[3,2-c]pyridin-4(5H)-one], for which the IC50 is at most 10 nM. For `NC(=O)c1csc(-c2nc(Nc3cc4c(cc3Cl)CN(C3CNC3)CC4)ncc2C(F)(F)F)c1` [Example 5, 5-(2-((2-(azetidin-3-yl)-7-chloro-1,2,3,4-tetrahydroisoquinolin-6-yl)amino)-5-(trifluoromethyl)pyrimidin-4-yl)thiophene-3-carboxamide], the IC50 is at most 10 nM. On the same count and under the same terms, the same measure for `CNC(=O)c1csc(-c2nc(Nc3cc4c(cc3Cl)CNCC4)ncc2C(F)(F)F)c1` [Example 6, 5-(2-((7-chloro-1,2,3,4-tetrahydroisoquinolin-6-yl)amino)-5-(trifluoromethyl)pyrimidin-4-yl)-N-methylthiophene-3-carboxamide]: 50 to 100 nM; for `NC(=O)c1csc(-c2nc(Nc3cc4c(cc3Cl)CNC4)ncc2C(F)(F)F)c1` [Example 7, 5-(2-((6-chloroisoindolin-5-yl)amino)-5-(trifluoromethyl)pyrimidin-4-yl)thiophene-3-carboxamide]: at most 10 nM; for `FC(F)(F)c1cnc(Nc2cc3c(cc2Cl)CNCC3)nc1-c1cc(C2=NCCO2)cs1` [Example 8, 7-chloro-N-(4-(4-(4,5-dihydrooxazol-2-yl)thiophen-2-yl)-5-(trifluoromethyl)pyrimidin-2-yl)-1,2,3,4-tetrahydroisoquinolin-6-amine]: 10 to 50 nM. Same read-out and setting: the same measure for `CCc1cc2c(cc1Nc1ncc(C(F)(F)F)c(-c3cc(C(N)=O)cs3)n1)CCNC2` [Example 9, 5-(2-((7-ethyl-1,2,3,4-tetrahydroisoquinolin-6-yl)amino)-5-(trifluoromethyl)pyrimidin-4-yl)thiophene-3-carboxamide]: at most 10 nM; for `NC(=O)c1csc(-c2nc(Nc3cc4c(cc3C3CC3)CNCC4)ncc2C(F)(F)F)c1` [Example 10, 5-(2-((7-cyclopropyl-1,2,3,4-tetrahydroisoquinolin-6-yl)amino)-5-(trifluoromethyl)pyrimidin-4-yl)thiophene-3-carboxamide]: at most 10 nM. On the same count and under the same terms, in the case of `CN1CC(N2CCc3cc(Nc4ncc(C(F)(F)F)c(-c5cc(C(N)=O)cs5)n4)c(Cl)cc3C2)C1` [Example 11, 5-(2-((7-chloro-2-(1-methylazetidin-3-yl)-1,2,3,4-tetrahydroisoquinolin-6-yl)amino)-5-(trifluoromethyl)pyrimidin-4-yl)thiophene-3-carboxamide] it was 10 to 50 nM; in that of `CN1CC(N2Cc3cc(Cl)c(Nc4ncc(C(F)(F)F)c(-c5cc(C(N)=O)cs5)n4)cc3C2)C1` [Example 12, 5-(2-((6-chloro-2-(1-methylazetidin-3-yl)isoindolin-5-yl)amino)-5-(trifluoromethyl)pyrimidin-4-yl)thiophene-3-carboxamide], at most 10 nM. Consider `CCc1cc2c(cc1Nc1ncc(C(F)(F)F)c(-c3cc(C(N)=O)cs3)n1)CCN(C)C2` [Example 13, 5-(2-((7-ethyl-2-methyl-1,2,3,4-tetrahydroisoquinolin-6-yl)amino)-5-(trifluoromethyl)pyrimidin-4-yl)thiophene-3-carboxamide], for which the IC50 is at most 10 nM. With `CN1CCc2cc(Nc3ncc(C(F)(F)F)c(-c4cc(C(N)=O)cs4)n3)c(C3CC3)cc2C1` [Example 14, 5-(2-((7-cyclopropyl-2-methyl-1,2,3,4-tetrahydroisoquinolin-6-yl)amino)-5-(trifluoromethyl)pyrimidin-4-yl)thiophene-3-carboxamide], the IC50 is at most 10 nM. Same read-out and setting: in the case of `Nc1csc(-c2nc(Nc3cc4c(cc3Cl)CNCC4)ncc2C(F)(F)F)c1` [Example 15, N-(4-(4-aminothiophen-2-yl)-5-(trifluoromethyl)pyrimidin-2-yl)-7-chloro-1,2,3,4-tetrahydroisoquinolin-6-amine] it was 10 to 50 nM. Same read-out and setting: the same measure for `CS(=O)(=O)Nc1csc(-c2nc(Nc3cc4c(cc3Cl)CNCC4)ncc2C(F)(F)F)c1` [Example 16, N-(5-(2-((7-chloro-1,2,3,4-tetrahydroisoquinolin-6-yl)amino)-5-(trifluoromethyl)pyrimidin-4-yl)thiophen-3-yl)methanesulfonamide]: at most 10 nM; for `CN1Cc2cc(Cl)c(Nc3ncc(C(F)(F)F)c(-c4cc(C(N)=O)cs4)n3)cc2C1` [Example 17, 5-(2-((6-Chloro-2-methylisoindolin-5-yl)amino)-5-(trifluoromethyl)pyrimidin-4-yl)thiophene-3-carboxamide]: at most 10 nM. With `FC(F)(F)c1cnc(Nc2cc3c(cc2Cl)CNCC3)nc1-c1cc(-c2ncco2)cs1` [Example 18, 7-Chloro-N-(4-(4-(oxazol-2-yl)thiophen-2-yl)-5-(trifluoromethyl)pyrimidin-2-yl)-1,2,3,4-tetrahydroisoquinolin-6-amine], the 50% inhibitory concentration (IC50) was 10 to 50 nM.

Another test concerns the target T1, Recombinant human ULK1 (1-649). In words: ULK1 ADP Glo kinase activity assay, new method (ULKtide peptide substrate). The following applies: 25° C., 40 minutes, read-out: ULK1 biochemical IC50. In short, it runs like this: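 Kinase activity was read as ADP production (ADP-Glo, luminescence 30 min after detection reagent) following a 40-min, 25 °C reaction of Sf9-expressed GST-ULK1 (1-649) with ULKtide substrate and ATP. Compounds ran as 12-point series starting at 10 μM; four-parameter curve fitting versus DMSO wells gave IC50.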
With `CCc1cc(N2CCN[C@@H](CO)C2)ccc1Nc1ncc(C(F)(F)F)c(-c2cc3c(s2)C(=O)N(C2CC2)CCS3(=O)=O)n1` [Example 407, (R)-4-cyclopropyl-7-(2-((2-ethyl-4-(3-(hydroxymethyl)piperazin-1-yl)phenyl)amino)-5-(trifluoromethyl)pyrimidin-4-yl)-3,4-dihydrothieno[2,3-f][1,4]thiazepin-5(2H)-one 1,1-dioxide], the IC50 was at most 5 nM. `CCc1cc(N2CCN(C)[C@@H](CO)C2)ccc1Nc1ncc(C(F)(F)F)c(-c2cc3c(s2)C(=O)N(C2CC2)CCS3(=O)=O)n1` [Example 408, (R)-4-cyclopropyl-7-(2-((2-ethyl-4-(3-(hydroxymethyl)-4-methylpiperazin-1-yl)phenyl)amino)-5-(trifluoromethyl)pyrimidin-4-yl)-3,4-dihydrothieno[2,3-f][1,4]thiazepin-5(2H)-one 1,1-dioxide]: the IC50 is at most 5 nM. Same read-out and setting: in the case of `CCc1cc(N2CCN(C)[C@@H](CO)C2)ccc1Nc1ncc(C(F)(F)F)c(-c2cc3c(s2)C(=O)N(C2COC2)CCS3(=O)=O)n1` [Example 409, (R)-7-(2-((2-Ethyl-4-(3-(hydroxymethyl)-4-methylpiperazin-1-yl)phenyl)amino)-5-(trifluoromethyl)pyrimidin-4-yl)-4-(oxetan-3-yl)-3,4-dihydrothieno[2,3-f][1,4]thiazepin-5(2H)-one 1,1-dioxide] it was at most 5 nM.

Source of the values: patent publication US20250144094A1 (Erasca, Inc., priority 2021, published 2025).
